From PMC6311682, “Design, Synthesis, and Biological Evaluation of 2-Nitroimidazopyrazin-one/-es with Antitubercular and Antiparasitic Activity” (Journal of Medicinal Chemistry, 2018)
≈ marks a conversion by molar mass, not a printed value.

test system: L. donovani MHOM/IN/80/DD8 (ATCC50212); experiment: L. donovani DD8 intracellular (THP-1) amastigote assay; assay type: cell-based; conditions: Leishmania donovani, read-out: antiparasitic IC50 L. donovani

Compound | IC50
CC(=O)OCCOc1nc(C)cn2cc([N+](=O)[O-])nc12 [25c, 2-((6-Methyl-2-nitroimidazo[1,2-a]pyrazin-8-yl)oxy)ethyl] | > 80 µM
Cc1cn2cc([N+](=O)[O-])nc2c(=O)n1CCO [25d, 7-(2-Hydroxyethyl)-6-methyl-2-nitroimidazo[1,2-a]pyrazin-8(7H)-one] | > 80 µM
Cc1cn2cc([N+](=O)[O-])nc2c(OCCO)n1 [25e, 2-((6-Methyl-2-nitroimidazo[1,2-a]pyrazin-8-yl)oxy)ethan-1-ol] | > 80 µM

same assay, conditions: Leishmania donovani, read-out: antiparasitic pIC50 ± SE L. donovani (converted)

Compound | IC50
CC(=O)OCCOc1nc(C)cn2cc([N+](=O)[O-])nc12 [25c, 2-((6-Methyl-2-nitroimidazo[1,2-a]pyrazin-8-yl)oxy)ethyl] | > 79.4 µM
Cc1cn2cc([N+](=O)[O-])nc2c(=O)n1CCO [25d, 7-(2-Hydroxyethyl)-6-methyl-2-nitroimidazo[1,2-a]pyrazin-8(7H)-one] | > 79.4 µM
Cc1cn2cc([N+](=O)[O-])nc2c(OCCO)n1 [25e, 2-((6-Methyl-2-nitroimidazo[1,2-a]pyrazin-8-yl)oxy)ethan-1-ol] | > 79.4 µM

test system: C. difficile (630, ATCC BAA-1382); experiment: Broth microdilution MIC assay, C. difficile; assay type: cell-based, Clostridium difficile; conditions: 630 ATCC BAA-1382, median MIC

Compound | antibacterial MIC C. difficile
CC(=O)OCCOc1nc(C)cn2cc([N+](=O)[O-])nc12 [25c, 2-((6-Methyl-2-nitroimidazo[1,2-a]pyrazin-8-yl)oxy)ethyl] | >64 µg/mL
Cc1cn2cc([N+](=O)[O-])nc2c(=O)n1CCO [25d, 7-(2-Hydroxyethyl)-6-methyl-2-nitroimidazo[1,2-a]pyrazin-8(7H)-one] | >64 µg/mL
Cc1cn2cc([N+](=O)[O-])nc2c(OCCO)n1 [25e, 2-((6-Methyl-2-nitroimidazo[1,2-a]pyrazin-8-yl)oxy)ethan-1-ol] | >64 µg/mL

same assay, conditions: Clostridioides difficile, ATCCBAA1382; 630 ATCC BAA-1382, median MIC; read-out: antibacterial MIC C. difficile

Compound | MIC
CC(=O)OCCOc1nc(C)cn2cc([N+](=O)[O-])nc12 [25c, 2-((6-Methyl-2-nitroimidazo[1,2-a]pyrazin-8-yl)oxy)ethyl] | > 64 µg/mL
Cc1cn2cc([N+](=O)[O-])nc2c(=O)n1CCO [25d, 7-(2-Hydroxyethyl)-6-methyl-2-nitroimidazo[1,2-a]pyrazin-8(7H)-one] | > 64 µg/mL
Cc1cn2cc([N+](=O)[O-])nc2c(OCCO)n1 [25e, 2-((6-Methyl-2-nitroimidazo[1,2-a]pyrazin-8-yl)oxy)ethan-1-ol] | > 64 µg/mL

test system: not listed separately; experiment: Broth microdilution MIC assay, ESKAPE pathogens; assay type: cell-based; conditions: S. aureus, E. coli, K. pneumoniae, A. baumannii, P. aeruginosa; read-out: antibacterial MIC ESKAPE

Compound | MIC
CC(=O)OCCOc1nc(C)cn2cc([N+](=O)[O-])nc12 [25c, 2-((6-Methyl-2-nitroimidazo[1,2-a]pyrazin-8-yl)oxy)ethyl] | > 32 µg/mL
Cc1cn2cc([N+](=O)[O-])nc2c(=O)n1CCO [25d, 7-(2-Hydroxyethyl)-6-methyl-2-nitroimidazo[1,2-a]pyrazin-8(7H)-one] | > 32 µg/mL
Cc1cn2cc([N+](=O)[O-])nc2c(OCCO)n1 [25e, 2-((6-Methyl-2-nitroimidazo[1,2-a]pyrazin-8-yl)oxy)ethan-1-ol] | > 32 µg/mL

test system: ESKAPE pathogens S. aureus (ATCC 43300), E. coli (ATCC 25922), K. pneumoniae (ATCC 700603), A. baumannii (ATCC 19606), P. aeruginosa (ATCC 27853); experiment: Broth microdilution MIC assay, ESKAPE pathogens; assay type: cell-based; conditions: not given

Compound | antibacterial MIC ESKAPE
CC(=O)OCCOc1nc(C)cn2cc([N+](=O)[O-])nc12 [25c, 2-((6-Methyl-2-nitroimidazo[1,2-a]pyrazin-8-yl)oxy)ethyl] | >32 µg/mL
Cc1cn2cc([N+](=O)[O-])nc2c(=O)n1CCO [25d, 7-(2-Hydroxyethyl)-6-methyl-2-nitroimidazo[1,2-a]pyrazin-8(7H)-one] | >32 µg/mL
Cc1cn2cc([N+](=O)[O-])nc2c(OCCO)n1 [25e, 2-((6-Methyl-2-nitroimidazo[1,2-a]pyrazin-8-yl)oxy)ethan-1-ol] | >32 µg/mL

test system: C. albicans (ATCC 90028) and C. neoformans (H99, ATCC 208821); experiment: Broth microdilution MIC assay, fungi; assay type: cell-based; conditions: not given

Compound | antifungal MIC
CC(=O)OCCOc1nc(C)cn2cc([N+](=O)[O-])nc12 [25c, 2-((6-Methyl-2-nitroimidazo[1,2-a]pyrazin-8-yl)oxy)ethyl] | >32 µg/mL
Cc1cn2cc([N+](=O)[O-])nc2c(=O)n1CCO [25d, 7-(2-Hydroxyethyl)-6-methyl-2-nitroimidazo[1,2-a]pyrazin-8(7H)-one] | >32 µg/mL
Cc1cn2cc([N+](=O)[O-])nc2c(OCCO)n1 [25e, 2-((6-Methyl-2-nitroimidazo[1,2-a]pyrazin-8-yl)oxy)ethan-1-ol] | >32 µg/mL

same assay, conditions: Candida albicans, read-out: antifungal MIC

Compound | MIC
CC(=O)OCCOc1nc(C)cn2cc([N+](=O)[O-])nc12 [25c, 2-((6-Methyl-2-nitroimidazo[1,2-a]pyrazin-8-yl)oxy)ethyl] | > 32 µg/mL
Cc1cn2cc([N+](=O)[O-])nc2c(=O)n1CCO [25d, 7-(2-Hydroxyethyl)-6-methyl-2-nitroimidazo[1,2-a]pyrazin-8(7H)-one] | > 32 µg/mL
Cc1cn2cc([N+](=O)[O-])nc2c(OCCO)n1 [25e, 2-((6-Methyl-2-nitroimidazo[1,2-a]pyrazin-8-yl)oxy)ethan-1-ol] | > 32 µg/mL

test system: not listed separately; experiment: Kinetic solubility determination by LC-UV; conditions: PBS, pH 7.4, Solubility µM (PBS), PBS pH 7.4, 24 h, room temperature, 1% DMSO

Compound | solubility at 24 h
CC(=O)OCCOc1nc(C)cn2cc([N+](=O)[O-])nc12 [25c, 2-((6-Methyl-2-nitroimidazo[1,2-a]pyrazin-8-yl)oxy)ethyl] | 185 ± 2.69 µM (≈ 51.8 µg/mL)
Cc1cn2cc([N+](=O)[O-])nc2c(=O)n1CCO [25d, 7-(2-Hydroxyethyl)-6-methyl-2-nitroimidazo[1,2-a]pyrazin-8(7H)-one] | > 200 µM
Cc1cn2cc([N+](=O)[O-])nc2c(OCCO)n1 [25e, 2-((6-Methyl-2-nitroimidazo[1,2-a]pyrazin-8-yl)oxy)ethan-1-ol] | 193 ± 3.28 µM (≈ 46 µg/mL)

same assay, conditions: water, Solubility µM (H2O), 24 h, room temperature, 1% DMSO

Compound | solubility at 24 h
CC(=O)OCCOc1nc(C)cn2cc([N+](=O)[O-])nc12 [25c, 2-((6-Methyl-2-nitroimidazo[1,2-a]pyrazin-8-yl)oxy)ethyl] | 169 ± 11 µM (≈ 47.4 µg/mL)
Cc1cn2cc([N+](=O)[O-])nc2c(=O)n1CCO [25d, 7-(2-Hydroxyethyl)-6-methyl-2-nitroimidazo[1,2-a]pyrazin-8(7H)-one] | > 200 µM
Cc1cn2cc([N+](=O)[O-])nc2c(OCCO)n1 [25e, 2-((6-Methyl-2-nitroimidazo[1,2-a]pyrazin-8-yl)oxy)ethan-1-ol] | 196 ± 1.45 µM (≈ 46.7 µg/mL)

test system: not listed separately; experiment: Mammalian cytotoxicity assay (resazurin), HepG2; conditions: human, HepG2 cells

Compound | CC50 at 24 h
CC(=O)OCCOc1nc(C)cn2cc([N+](=O)[O-])nc12 [25c, 2-((6-Methyl-2-nitroimidazo[1,2-a]pyrazin-8-yl)oxy)ethyl] | > 100 µM
Cc1cn2cc([N+](=O)[O-])nc2c(=O)n1CCO [25d, 7-(2-Hydroxyethyl)-6-methyl-2-nitroimidazo[1,2-a]pyrazin-8(7H)-one] | > 100 µM
Cc1cn2cc([N+](=O)[O-])nc2c(OCCO)n1 [25e, 2-((6-Methyl-2-nitroimidazo[1,2-a]pyrazin-8-yl)oxy)ethan-1-ol] | > 100 µM

test system: not listed separately; experiment: Mammalian cytotoxicity assay (resazurin), HEK293; conditions: human, HEK293 cells

Compound | CC50 at 24 h
CC(=O)OCCOc1nc(C)cn2cc([N+](=O)[O-])nc12 [25c, 2-((6-Methyl-2-nitroimidazo[1,2-a]pyrazin-8-yl)oxy)ethyl] | > 100 µM
Cc1cn2cc([N+](=O)[O-])nc2c(=O)n1CCO [25d, 7-(2-Hydroxyethyl)-6-methyl-2-nitroimidazo[1,2-a]pyrazin-8(7H)-one] | > 100 µM
Cc1cn2cc([N+](=O)[O-])nc2c(OCCO)n1 [25e, 2-((6-Methyl-2-nitroimidazo[1,2-a]pyrazin-8-yl)oxy)ethan-1-ol] | > 100 µM
